Assay results from US20260347338A1, “PYRIMIDINE/PYRIDINE DERIVATIVES OR SALTS THEREOF AND PHARMACEUTICAL COMPOSITIONS COMPRISING THE SAME” (YUHAN CORPORATION, priority 2023, published 2026).
Structures can show the parent of a compound that is named as a salt.

Molecular target: T1, human recombinant HPK1 (Homo sapiens, UniProt Q92918)
T1 construct: purchased BPS Bioscience
Assay: Inhibitory activity against human recombinant HPK1 (TR-FRET)
Assay type: biochemical
Details: ULight-p70S6K peptide, ATP at Km, room temperature, 1 hour, 0.32 to 1000 nM compound
Procedure, shortened: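 Recombinant human HPK1 with ULight-p70S6K peptide and ATP at Km, 1 h at room temperature in HEPES pH 7.4 buffer with Mg2+, Mn2+, EGTA, DTT; compounds 0.32–1000 nM final. EDTA stop, Eu-anti-phosphopeptide TR-FRET read (665 nm); IC50 from % inhibition versus DMSO, binned A–D at 10, 50, 100 nM.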

T1 sequence (Q92918 whole entry): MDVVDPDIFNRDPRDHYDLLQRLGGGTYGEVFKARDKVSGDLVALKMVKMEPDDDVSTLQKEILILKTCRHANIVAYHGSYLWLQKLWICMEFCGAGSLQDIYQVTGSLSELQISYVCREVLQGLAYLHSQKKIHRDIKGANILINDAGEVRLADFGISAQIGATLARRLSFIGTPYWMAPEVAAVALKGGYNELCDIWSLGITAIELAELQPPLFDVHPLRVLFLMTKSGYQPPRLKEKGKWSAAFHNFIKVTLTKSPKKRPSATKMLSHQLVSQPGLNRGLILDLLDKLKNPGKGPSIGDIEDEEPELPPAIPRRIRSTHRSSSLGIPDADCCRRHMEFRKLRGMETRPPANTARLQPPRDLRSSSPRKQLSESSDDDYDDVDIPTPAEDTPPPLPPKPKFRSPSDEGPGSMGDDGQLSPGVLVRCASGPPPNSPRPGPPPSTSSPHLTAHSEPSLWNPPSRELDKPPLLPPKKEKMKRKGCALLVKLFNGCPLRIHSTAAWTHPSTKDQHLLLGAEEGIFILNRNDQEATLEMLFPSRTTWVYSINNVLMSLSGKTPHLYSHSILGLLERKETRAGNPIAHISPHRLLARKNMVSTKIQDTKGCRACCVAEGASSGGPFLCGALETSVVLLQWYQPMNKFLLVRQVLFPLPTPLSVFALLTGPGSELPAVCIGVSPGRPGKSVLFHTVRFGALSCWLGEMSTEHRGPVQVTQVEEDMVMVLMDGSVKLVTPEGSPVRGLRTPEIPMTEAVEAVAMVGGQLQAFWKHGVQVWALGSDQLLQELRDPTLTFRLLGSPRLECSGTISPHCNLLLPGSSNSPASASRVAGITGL

| IC50 [nM] | Compound |
| --- | --- |
| ≤ 10 | COc1cccc(F)c1-c1nccc(Nc2cc(N3CCC[C@H](N)C3)c(-c3ccc(F)c(F)c3)cn2)n1 [Example 294, (S)-N-(4-(3-aminopiperidin-1-yl)-5-(3,4-difluorophenyl)pyridin-2-yl)-2-(2-fluoro-6-methoxyphenyl)pyrimidin-4-amine hydrochloride] |
| ≤ 10 | COc1cccc(F)c1-c1nccc(Nc2cc(N3CC[C@@H](N)[C@H](O)C3)c(-c3cnn(C(F)F)c3)cn2)n1 [Example 295, (3R,4R)-4-amino-1-(5-(1-(difluoromethyl)-1H-pyrazol-4-yl)-2-((2-(2-fluoro-6-methoxyphenyl)pyrimidin-4-yl)amino)pyridin-4-yl)piperidin-3-ol] |
| ≤ 10 | COc1cccc(F)c1-c1nccc(Nc2cc(N3CCC[C@H](N)C3)c(-c3ccc(F)c(N(C)C)c3)cn2)n1 [Example 296, (S)-N-(4-(3-aminopiperidin-1-yl)-5-(3-(dimethylamino)-4-fluorophenyl)pyridin-2-yl)-2-(2-fluoro-6-methoxyphenyl)pyrimidin-4-amine hydrochloride] |
| ≤ 10 | COc1cccc(F)c1-c1nccc(Nc2cc(N3CC[C@H](N)[C@H](C)C3)c(-c3cnn(C(F)F)c3)cn2)n1 [Example 297, N-(4-((3R,4S)-4-amino-3-methylpiperidin-1-yl)-5-(1-(difluoromethyl)-1H-pyrazol-4-yl)pyridin-2-yl)-2-(2-fluoro-6-methoxyphenyl)pyrimidin-4-amine hydrochloride] |
| ≤ 10 | COc1cccc(F)c1-c1nccc(Nc2cc(N3CCC[C@H](N)C3)c(-c3cnn([C@H]4CCOC4)c3)cn2)n1 [Example 298, N-(4-((S)-3-aminopiperidin-1-yl)-5-(1-((S)-tetrahydrofuran-3-yl)-1H-pyrazol-4-yl)pyridin-2-yl)-2-(2-fluoro-6-methoxyphenyl)pyrimidin-4-amine hydrochloride] |
| ≤ 10 | COc1cccc(F)c1-c1nccc(Nc2cc(N3CCC[C@H](N)C3)c(-c3cnn([C@@H]4CCOC4)c3)cn2)n1 [Example 299, N-(4-((S)-3-aminopiperidin-1-yl)-5-(1-((R)-tetrahydrofuran-3-yl)-1H-pyrazol-4-yl)pyridin-2-yl)-2-(2-fluoro-6-methoxyphenyl)pyrimidin-4-amine hydrochloride] |
| ≤ 10 | COc1cccc(F)c1-c1nc(Nc2cc(N3CCC[C@H](N)C3)c(-c3cnn(C4CCOCC4)c3)cn2)ccc1C#N [Example 300, 6-((4-((S)-3-aminopiperidin-1-yl)-5-(1-(tetrahydro-2H-pyran-4-yl)-1H-pyrazol-4-yl)pyridin-2-yl)amino)-2-(2-fluoro-6-methoxyphenyl)nicotinonitrile hydrochloride] |
| ≤ 10 | COc1cccc(F)c1-c1nc(Nc2cc(N3CCC[C@H](N)C3)c(-c3cnn(C(F)F)c3)cn2)ccc1C#N [Example 301, 6-((4-((S)-3-aminopiperidin-1-yl)-5-(1-(difluoromethyl)-1H-pyrazol-4-yl)pyridin-2-yl)amino)-2-(2-fluoro-6-methoxyphenyl)nicotinonitrile hydrochloride] |
| ≤ 10 | COc1cccc(F)c1-c1nccc(Nc2cc(N3CC[C@H](N)[C@@H](F)C3)c(-c3cnn(C(F)F)c3)cn2)n1 [Example 302, N-(4-((3S,4S)-4-amino-3-fluoropiperidin-1-yl)-5-(1-(difluoromethyl)-1H-pyrazol-4-yl)pyridin-2-yl)-2-(2-fluoro-6-methoxyphenyl)pyrimidin-4-amine hydrochloride] |
| ≤ 10 | COc1cccc(F)c1-c1nccc(Nc2cc(N3C[C@@H](N)C[C@@H](F)C3)c(-c3cnn(C(F)F)c3)cn2)n1 [Example 303, N-(4-((3S,5R)-3-amino-5-fluoropiperidin-1-yl)-5-(1-(difluoromethyl)-1H-pyrazol-4-yl)pyridin-2-yl)-2-(2-fluoro-6-methoxyphenyl)pyrimidin-4-amine hydrochloride] |
| ≤ 10 | COc1cccc(F)c1-c1nccc(Nc2cc(N3C[C@@H](N)C[C@H](F)C3)c(-c3cnn(C(F)F)c3)cn2)n1 [Example 304, N-(4-((3S,5S)-3-amino-5-fluoropiperidin-1-yl)-5-(1-(difluoromethyl)-1H-pyrazol-4-yl)pyridin-2-yl)-2-(2-fluoro-6-methoxyphenyl)pyrimidin-4-amine hydrochloride] |
| ≤ 10 | COc1cccc(F)c1-c1nccc(Nc2cc(N3C[C@@H](N)C[C@@H](C(F)(F)F)C3)c(-c3cnn(C(F)F)c3)cn2)n1 [Example 305, N-(4-((3S,5R)-3-amino-5-(trifluoromethyl)piperidin-1-yl)-5-(1-(difluoromethyl)-1H-pyrazol-4-yl)pyridin-2-yl)-2-(2-fluoro-6-methoxyphenyl)pyrimidin-4-amine hydrochloride] |
| ≤ 10 | COc1cccc(F)c1-c1nccc(Nc2cc(N3C[C@@H](N)C[C@H](O)C3)c(-c3cnn(C(F)F)c3)cn2)n1 [Example 306, (3S,5S)-5-amino-1-(5-(1-(difluoromethyl)-1H-pyrazol-4-yl)-2-((2-(2-fluoro-6-methoxyphenyl)pyrimidin-4-yl)amino)pyridin-4-yl)piperidin-3-ol hydrochloride] |
| ≤ 10 | COc1cccc(F)c1-c1nccc(Nc2cc(N3CC[C@H](N)[C@H](F)C3)c(-c3cnn(C(F)F)c3)cn2)n1 [Example 307, N-(4-((3R,4S)-4-amino-3-fluoropiperidin-1-yl)-5-(1-(difluoromethyl)-1H-pyrazol-4-yl)pyridin-2-yl)-2-(2-fluoro-6-methoxyphenyl)pyrimidin-4-amine hydrochloride] |
| ≤ 10 | COc1cccc(F)c1-c1nccc(Nc2cc(N3CC[C@@H](N)[C@@H](F)C3)c(-c3cnn(C(F)F)c3)cn2)n1 [Example 308, N-(4-((3S,4R)-4-amino-3-fluoropiperidin-1-yl)-5-(1-(difluoromethyl)-1H-pyrazol-4-yl)pyridin-2-yl)-2-(2-fluoro-6-methoxyphenyl)pyrimidin-4-amine hydrochloride] |
| ≤ 10 | COc1cc(F)cc(F)c1-c1nc(Nc2cc(N3CCC[C@H](N)C3)c(-c3cnn(C4CCOCC4)c3)cn2)ccc1C#N [Example 309, 6-((4-((S)-3-aminopiperidin-1-yl)-5-(1-(tetrahydro-2H-pyran-4-yl)-1H-pyrazol-4-yl)pyridin-2-yl)amino)-2-(2,4-difluoro-6-methoxyphenyl)nicotinonitrile hydrochloride] |
| ≤ 10 | COc1cc(F)cc(F)c1-c1nc(Nc2cc(N3CCC[C@H](N)C3)c(-c3cnn(C(F)F)c3)cn2)ccc1C#N [Example 310, 6-((4-((S)-3-aminopiperidin-1-yl)-5-(1-(difluoromethyl)-1H-pyrazol-4-yl)pyridin-2-yl)amino)-2-(2,4-difluoro-6-methoxyphenyl)nicotinonitrile hydrochloride] |
| ≤ 10 | COc1cc(F)cc(F)c1-c1nccc(Nc2cc(N3CCC[C@H](N)C3)c(C#CC3(C)CCOCC3)cn2)n1 [Example 311, (S)-N-(4-(3-aminopiperidin-1-yl)-5-((4-methyltetrahydro-2H-pyran-4-yl)ethynyl)pyridin-2-yl)-2-(2,4-difluoro-6-methoxyphenyl)pyrimidin-4-amine] |
| ≤ 10 | COc1cc(F)cc(F)c1-c1nccc(Nc2cc(N3CCC[C@H](N)C3)c(C#CC3(O)CCOCC3)cn2)n1 [Example 312, (S)-4-((4-(3-aminopiperidin-1-yl)-6-((2-(2,4-difluoro-6-methoxyphenyl)pyrimidin-4-yl)amino)pyridin-3-yl)ethynyl)tetrahydro-2H-pyran-4-ol] |
| ≤ 10 | COc1cc(F)cc(F)c1-c1nccc(Nc2cc(N3CCC[C@H](N)C3)c(C#CC(C)(C)O)cn2)n1 [Example 313, (S)-4-(4-(3-aminopiperidin-1-yl)-6-((2-(2,4-difluoro-6-methoxyphenyl)pyrimidin-4-yl)amino)pyridin-3-yl)-2-methylbut-3-yn-2-ol] |
| ≤ 10 | COc1cc(F)cc(F)c1-c1nccc(Nc2cc(N3CCC[C@H](N)C3)c(C#CCCO)cn2)n1 [Example 314, (S)-4-(4-(3-aminopiperidin-1-yl)-6-((2-(2,4-difluoro-6-methoxyphenyl)pyrimidin-4-yl)amino)pyridin-3-yl)but-3-yn-1-ol] |
| ≤ 10 | COc1cccc(F)c1-c1nc(Nc2cc(N3CCC[C@H](N)C3)c(-c3cnn(C(F)F)c3)cn2)ccc1S(C)(=O)=O [Example 315, 4-((S)-3-aminopiperidin-1-yl)-5-(1-(difluoromethyl)-1H-pyrazol-4-yl)-N-(6-(2-fluoro-6-methoxyphenyl)-5-(methylsulfonyl)pyridin-2-yl)pyridin-2-amine hydrochloride] |
| ≤ 10 | COc1cccc(F)c1-c1nc(Nc2cc(N3CCC[C@H](O)C3)c(-c3cnn(CC(F)(F)F)c3)cn2)ccc1C#N [Example 316, 2-(2-fluoro-6-methoxyphenyl)-6-((4-((S)-3-hydroxypiperidin-1-yl)-5-(1-(2,2,2-trifluoroethyl)-1H-pyrazol-4-yl)pyridin-2-yl)amino)nicotinonitrile] |
| ≤ 10 | COc1cc(F)cc(F)c1-c1nc(Nc2cc(N3CCC[C@H](O)C3)c(-c3cnn(CC(F)(F)F)c3)cn2)ccc1C#N [Example 317, 2-(2,4-difluoro-6-methoxyphenyl)-6-((4-((S)-3-hydroxypiperidin-1-yl)-5-(1-(2,2,2-trifluoroethyl)-1H-pyrazol-4-yl)pyridin-2-yl)amino)nicotinonitrile] |
| ≤ 10 | COc1cccc(F)c1-c1nc(Nc2cc(N3CCC[C@H](N)C3)c(-c3cnn(CC(F)(F)F)c3)cn2)ccc1C#N [Example 318, 6-((4-((S)-3-aminopiperidin-1-yl)-5-(1-(2,2,2-trifluoroethyl)-1H-pyrazol-4-yl)pyridin-2-yl)amino)-2-(2-fluoro-6-methoxyphenyl)nicotinonitrile hydrochloride] |
